In ChEMBL document CHEMBL1136063, “Oxal hydroxamic acid derivatives with inhibitory activity against matrix metalloproteinases” (Bioorg Med Chem Lett, 2002):

Tests used:
[1] = target: T1, Matrix metalloproteinase-9 (Homo sapiens, UniProt P14780); experiment: Inhibitory activity against human gelatinase B (matrix metalloprotease-9)
Neutrophil collagenase [2] = target: T2, Neutrophil collagenase (Homo sapiens, UniProt P22894); experiment: Percent remaining enzyme activity (RA) in neutrophil collagenase (matrix metalloprotease-8); parameters: concentration or dose not given beside the values
Target sequence in this assay (P22894 101-467 limits assumed): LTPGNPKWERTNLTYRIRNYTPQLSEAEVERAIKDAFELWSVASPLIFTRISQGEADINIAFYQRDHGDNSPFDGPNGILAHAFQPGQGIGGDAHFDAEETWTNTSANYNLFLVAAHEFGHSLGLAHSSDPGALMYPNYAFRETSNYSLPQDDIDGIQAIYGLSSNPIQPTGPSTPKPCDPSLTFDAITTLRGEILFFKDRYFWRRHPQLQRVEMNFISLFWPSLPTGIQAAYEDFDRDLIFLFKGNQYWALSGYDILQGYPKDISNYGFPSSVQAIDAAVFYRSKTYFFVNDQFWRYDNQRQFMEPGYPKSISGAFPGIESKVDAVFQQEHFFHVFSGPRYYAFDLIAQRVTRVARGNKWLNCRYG

[3] = target: T1, Matrix metalloproteinase-9; experiment: Percent remaining enzyme activity (RA) in human gelatinase B (matrix metalloprotease-9); parameters: concentration or dose not given beside the values
Neutrophil collagenase [4] = target: T2, Neutrophil collagenase; experiment: Tested for its inhibitory activity against neutrophil collagenase (Matrix metalloprotease-8)
Target sequence in this assay (P22894 whole entry): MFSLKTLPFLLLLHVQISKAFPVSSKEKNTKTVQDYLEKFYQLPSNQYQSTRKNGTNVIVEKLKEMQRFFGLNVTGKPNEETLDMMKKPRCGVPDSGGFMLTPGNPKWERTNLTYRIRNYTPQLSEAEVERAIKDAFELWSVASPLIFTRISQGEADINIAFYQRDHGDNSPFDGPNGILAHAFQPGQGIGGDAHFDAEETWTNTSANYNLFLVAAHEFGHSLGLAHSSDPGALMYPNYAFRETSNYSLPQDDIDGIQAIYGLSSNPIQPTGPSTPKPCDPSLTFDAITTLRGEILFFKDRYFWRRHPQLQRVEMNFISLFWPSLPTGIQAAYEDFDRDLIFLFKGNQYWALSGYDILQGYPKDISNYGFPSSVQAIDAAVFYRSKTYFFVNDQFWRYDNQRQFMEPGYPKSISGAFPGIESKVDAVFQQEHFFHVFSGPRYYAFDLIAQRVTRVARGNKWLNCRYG

[5] = target: T3, Matrix metalloproteinase-14 (Homo sapiens, UniProt P50281); experiment: Percent remaining enzyme activity (RA) in catalytic domains of the membrane type MT1-MMP (matrix metalloprotease-14); parameters: concentration or dose not given beside the values
[6] = target: T3, Matrix metalloproteinase-14; experiment: (§1) Inhibition of membrane type MT1-MMP (Matrix metalloprotease-14)catalytic domain; conditions: concentration not given here
[7] = target: T3, Matrix metalloproteinase-14; experiment: as §1

T1 sequence (P14780 whole entry): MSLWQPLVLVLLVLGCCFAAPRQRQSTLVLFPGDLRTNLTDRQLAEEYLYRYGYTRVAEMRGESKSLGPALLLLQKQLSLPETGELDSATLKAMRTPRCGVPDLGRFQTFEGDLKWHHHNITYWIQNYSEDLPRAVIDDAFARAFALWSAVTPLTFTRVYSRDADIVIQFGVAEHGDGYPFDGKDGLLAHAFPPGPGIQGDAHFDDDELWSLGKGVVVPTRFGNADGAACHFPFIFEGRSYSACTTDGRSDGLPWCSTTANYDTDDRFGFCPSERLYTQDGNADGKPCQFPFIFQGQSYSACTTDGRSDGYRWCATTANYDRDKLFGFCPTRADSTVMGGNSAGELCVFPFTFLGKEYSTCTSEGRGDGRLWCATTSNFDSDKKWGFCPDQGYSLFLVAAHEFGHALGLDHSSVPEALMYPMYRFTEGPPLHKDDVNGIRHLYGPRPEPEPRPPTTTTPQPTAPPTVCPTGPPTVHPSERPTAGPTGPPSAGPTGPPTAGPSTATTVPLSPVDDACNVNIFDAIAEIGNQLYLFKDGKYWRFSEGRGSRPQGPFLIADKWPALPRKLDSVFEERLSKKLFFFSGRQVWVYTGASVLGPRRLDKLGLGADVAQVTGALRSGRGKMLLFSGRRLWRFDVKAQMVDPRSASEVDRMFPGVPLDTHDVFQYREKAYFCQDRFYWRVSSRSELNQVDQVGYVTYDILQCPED

| Ki [1] [µM] | residual activity (Neutrophil collagenase [2]) [%] | residual activity [3] [%] | Ki (Neutrophil collagenase [4]) [µM] | residual activity [5] [%] | inhibition [6] [%] | Ki [7] [µM] | SMILES |
| --- | --- | --- | --- | --- | --- | --- | --- |
| 3.2 | 8 | 11 | 3 | 71 |  |  | CC(OCc1ccccc1)[C@H](NC(=O)C(=O)NO)C(=O)N[C@@H](C)c1ccccc1 (some centres undefined) |
| 8.2 | 47 | 15 |  | 26 |  |  | CN(C)C(=O)[C@H](Cc1cccc2ccccc12)NC(=O)C(=O)NO |
| 9 | 9 | 35 | 6 |  | 80 | 180 | C[C@H](NC(=O)C(=O)NO)C(=O)N[C@@H](C)c1ccccc1 |
|  | 39 | 5 |  | 48 |  |  | O=C(NO)C(=O)NCCC(NC(=O)C(=O)NO)C1CCCCC1 (centres undefined) |
| 0.9 | 1 | 1 | 0.43 | 36 |  | 14 | C[C@H](NC(=O)[C@H](Cc1ccccc1)NC(=O)C(=O)NO)c1ccccc1 |
| 14 | 48 | 25 | 38 | 15 |  | 9.5 | CN(C)C(=O)[C@H](Cc1ccccc1)NC(=O)C(=O)NO |
| 44 | 15 | 19 | 6 | 30 |  |  | CN(C)C(=O)[C@H](Cc1ccc2ccccc2c1)NC(=O)C(=O)NO |
|  | 5 | 2 |  | 42 |  |  | CC(NC(=O)[C@H](Cc1ccccc1)NC(=O)C(=O)NO)c1cccc2ccccc12 (some centres undefined) |
| 1 | 10 | 3 |  | 5 |  | 1.4 | CN(C)C(=O)[C@@H](Cc1ccc(OCc2ccccc2)cc1)NC(=O)[C@H](Cc1ccccc1)NC(=O)C(=O)NO |
|  | 5 | 2 |  | 23 |  |  | O=C(NO)C(=O)N[C@@H](Cc1ccc(COc2ccccc2)cc1)C(=O)NO |
|  | 56 | 40 |  | 41 |  |  | CN(C)C(=O)[C@H](COCc1ccccc1)NC(=O)C(=O)NO |
|  | 74 | 60 |  | 79 |  |  | CC(C)C[C@H](NC(=O)C(=O)NO)C(=O)N[C@H](C)c1ccccc1 |
| 0.8 | 6 | 5 | 1 | 74 |  |  | C[C@H](NC(=O)[C@H](Cc1ccc(NC(=O)Nc2ccccc2)cc1)NC(=O)C(=O)NO)c1ccccc1 |
| 0.1 | 2 | 1 | 0.4 | 36 |  |  | C[C@H](NC(=O)[C@H](Cc1c[nH]c2ccccc12)NC(=O)C(=O)NO)c1ccccc1 |
| 0.15 | 0 | 1 | 0.3 |  |  | 29 | C[C@H](NC(=O)[C@H](Cc1cccc2ccccc12)NC(=O)C(=O)NO)c1ccccc1 |
| 2 | 4 | 1 | 1.5 | 53 |  |  | CNC(=O)[C@H](Cc1ccc(OCc2ccccc2)cc1)NC(=O)C(=O)NO |
| 3 | 43 | 7 | 22 | 37 |  |  | CN(C)C(=O)[C@H](Cc1ccc(COc2ccccc2)cc1)NC(=O)C(=O)NO |

| Ki [1] [µM] | residual activity (Neutrophil collagenase [2]) [%] | residual activity [3] [%] | Ki (Neutrophil collagenase [4]) [µM] | residual activity [5] [%] | inhibition [6] [%] | Ki [7] [µM] | SMILES |
| --- | --- | --- | --- | --- | --- | --- | --- |
|  | 89 | 67 |  | 80 |  |  | C[C@H](NC(=O)C(=O)NO)c1ccc2ccccc2c1 |
| 4 | 67 | 18 | 75 | 66 |  |  | CC(OCc1ccccc1)[C@H](NC(=O)C(=O)NO)C(=O)N(C)C (some centres undefined) |
| 0.35 | 15 | 2 | 14 | 35 |  | 35 | O=C(NO)C(=O)NCCc1c[nH]c2ccc(Cl)cc12 |
| 0.25 | 12 | 3 | 7 | 14 |  | 9 | CCCCC(CC)COCCCNC(=O)C(=O)NO (centres undefined) |
|  | 32 | 22 |  | 76 |  |  | C[C@H](NC(=O)[C@H](Cc1ccc(NC(=O)OCc2ccccc2)cc1)NC(=O)C(=O)NO)c1ccccc1 |
| 0.6 | 0 | 0 | 0.25 | 54 |  |  | C[C@H](NC(=O)[C@H](Cc1ccc(O)cc1)NC(=O)C(=O)NO)c1ccccc1 |
| 3.3 | 1 | 6 |  | 19 |  | 11 | C[C@H](NC(=O)[C@H](COCc1ccccc1)NC(=O)C(=O)NO)c1ccccc1 |
| 0.1 | 14 | 0 |  | 20 |  |  | O=C(NO)C(=O)NCCN(C(=O)C(=O)NO)c1cccc2ccccc12 |
| 0.8 | 18 | 3 |  | 48 |  |  | O=C(NO)C(=O)NCCc1c[nH]c2ccccc12 |
| 4.4 | 44 | 25 | 28 | 33 |  | 15 | CN(C)C(=O)[C@H](Cc1c[nH]c2ccccc12)NC(=O)C(=O)NO |
| 0.5 | 4 | 5 | 1 | 37 |  |  | C[C@H](NC(=O)[C@H](Cc1ccc2ccccc2c1)NC(=O)C(=O)NO)c1ccccc1 |
|  | 72 | 55 |  | 61 |  |  | CC(C)C[C@H](NC(=O)C(=O)NO)C(=O)N(C)C |
|  | 5 | 11 |  | 69 |  |  | C[C@H](NC(=O)[C@H](Cc1ccc(OCc2ccccc2)cc1)NC(=O)C(=O)NO)c1ccccc1 |
| 7.5 | 34 | 13 |  | 29 |  | 33 | CCCC[C@H](NC(=O)C(=O)NO)C(=O)N[C@H](Cc1ccc(OCc2ccccc2)cc1)C(=O)N(C)C |
| 0.6 | 1 | 3 |  | 53 |  |  | C[C@H](NC(=O)[C@H](CC(=O)OCc1ccccc1)NC(=O)C(=O)NO)c1ccccc1 |
| 3.3 | 43 | 7 |  | 54 |  |  | C[C@@H](NC(=O)C(=O)NO)c1ccc2ccccc2c1 |
| 5.5 | 3 | 9 | 1.7 | 54 |  | 20 | CC(C)C[C@H](NC(=O)C(=O)NO)C(=O)N[C@@H](C)c1ccccc1 |
